Earlier results, collected in patent US20190231742A1, “NUTRITIONAL AGENTS USED TO PREVENT AND TREAT HYPERSENSITIVITY AND OTHER ALLERGIC-TYPE DISORDERS” (priority 2017, published 2019).

How the values were obtained:
[1] = taken by mouth; FIG. 3
[2] = Alzheimer's disease patient; increasing quantities on successive days
[3] = oral administration of ~20 g; raised from ≤0.2 mM

SMILES | rise in the blood level of D-βOHB and AcAc with increasing oral amount (mg/kg body weight) [1] | time of peak blood D-βOHB level after ingestion [2] | water solubility | plasma D-βOHB level [3] [mM]
CC(O)CCOC(=O)CC(C)O [KME, (R)-3-hydroybutyl (R)-3-hydroxybutyrate] | increases proportionately | about 1 hour | somewhat water soluble | 
CCCCCCCC(=O)OCC(COC(=O)CCCCCCC)OC(=O)CCCCCCC [tricaprylin] |  |  |  | 0.5 to 0.7
